From patent publication US9770460B2, “Non-digestible oligosaccharides for oral induction of tolerance against dietary proteins” (N.V. NUTRICIA, priority 2010, dated 2017)
Where no end group is shown, it is not given here.

Test system: whey sensitized animals
Experiment: Mouse model of whey protein allergy: ear swelling after oral pretreatment with peptide mixtures (Example 4)
Type: in vivo, mice
Conditions: Example 4, pretreatment prior to whey sensitization
Excerpt: Three- to four-week-old pathogen free female C3H/HeOuJ mice (Charles River Laboratories, Maastricht, The Netherlands) were used for this experiment. The mice were maintained on cow's milk protein free standard mouse chow (AIN-93G soy, Special Diets Services, Wijk bij Duurstede, the Netherlands).
The AIN-93G control diet was mixed with non-digestible oligosaccharides (2% w/w). The same non-digestible oligosaccharides were used as in example 1.
18-amino-acid-long synthetic peptides of beta-lactoglobulin were obtained from JPT Peptide Technologies (Berlin, Germany) (Table 4). Whey protein was purchased from DMV International (Veghel, The Netherlands). […]. Phosphate-buffered saline (PBS) was obtained from Cambrex Bio Science (Verviers, Belgium).
Shortly prior to the experiment, the peptides were suspended in PBS. The peptides were combined in three mixtures, namely peptides 1-4 in mixture 1, peptides 5-7 in mixture 2 and peptides 8 and 9 in mixture 3. The final concentration of each peptide in the mixture was 8 mg/ml. […] Before and 1 h after the challenge, the ear thickness was measured using a digital micrometer (Mitutoyo, Veenendaal, the Netherlands). The difference in the ear thickness (ear swelling) is an indication for the acute allergic response and is expressed as delta μm.

AASDISLLDAQSAPLRVY [Peptide 3, beta-lactoglobulin AA 25-42]
allergic response / synergy with NDO, in words: did not show these synergistic effects with NDO
